Test results: patent US11337964B2, “Isoindoline derivative, pharmaceutical composition and use thereof” (Kangpu Biopharmaceuticals, Ltd., priority 2017, dated 2022)
Where two headings read alike, the source gives them in different places.

Key:
PDE4A1A = target: T1, PDE4A1A (Homo sapiens, UniProt P27815); test: PDE4 activity inhibition assay, PDE4A1A; format: biochemical; conditions: FAM-cAMP substrate, 30 minutes at room temperature
T1 construct: purchased BPS 60040
Description: (§1) The IC50 value of the inhibitory effect of the compound on PDE4A1A, PDE4B1 and PDE4D3 was tested.
(§2) Positive compound: Trequinsin (Sigma, Cat. No. T2057).
(§3) Equipment: Wallac Victor Multi-label counter (Perkin Elmer).
(§4) I. Preparing 1× reaction liquid and termination liquid;
(§5) II. PDE enzymatic reaction; • 1) The PDE was dissolved in 1× reaction solution to form 2× enzyme solution. • 2) FAM-cAMP was dissolved in 1× reaction solution to form 2× substrate solution. • 3) Echo 550 was used to transfer the corresponding volume of the compound in DMSO solution to the reaction plate. • 4) 2× enzyme solution was added into the corresponding well of the reaction plate and incubated with the compound solution at room temperature for 15 minutes. • 5) 2× substrate solution was added into the corresponding well of the reaction plate to initiate the reaction. • 6) Reaction plate was incubated at room temperature for 30 minutes and terminated by adding termination liquid, then incubated at room temperature for 60 minutes.
(§6) The inhibition rate was calculated by Excel; IC50 was calculated by GraphPad Prism.

PDE4D3 = target: T2, PDE4D3 (Homo sapiens, UniProt Q08499); test: PDE4 activity inhibition assay, PDE4D3; format: biochemical; conditions: FAM-cAMP substrate, 30 minutes at room temperature
T2 construct: purchased BPS 60046
Description: as §1, §2, §3, §4, §5, §6

[1] = PK parameter test in SD rats; format: in vivo, Sprague-Dawley rats; conditions: male SD rats; for Tmax / AUC / half-life: Sprague-Dawley, rat, plasma; for F: po 10 mg/kg vs iv 3 mg/kg
Description: Test compounds were administered intravenously or intragastrically singly to SD rats.
Blood samples were collected at different time points. LC-MS/MS was used to determine the concentration of the test compounds in rat plasma after administration of tested compounds and calculate the relevant PK parameters.
The test compounds are calculated based on free radicals and are converted only by purity.
A suitable amount of the test compound was added 5% DMSO+95% HP-beta-CD (20%) to prepare a solution of 0.6 mg/mL for intravenous administration.
A suitable amount of the test compound was added 5% DMSO+95% HP-beta-CD (20%) to prepare a solution of 1 mg/mL for intragastrical administration.
Male Sprague-Dawley rats were purchased from Shanghai Xipuer-Bikai Laboratory Animal Co., Ltd. There were 3 rats in each group. One group was used as control to collect blank plasma. The other groups were given each test compound by intravenous injection (the dose was 3 mg/kg) or intragastrical administration (the dose was 10 mg/kg). Heparin sodium was used for anticoagulation. Analyze the concentration of the test compound in the blood sample.
Abrosia for 10-14 hours before oral administration of the test compounds and resume feeding 4 hours after oral administration of the test compounds.
The time points of blood sample collection were: intravenous injection: before administration and at 0.083 hour, 0.25 hour, 0.5 hour, 1 hour, 2 hour, 4 hour, 6 hour, 8 hour, 24 hour after administration; oral administration: before administration and at 0.25 hour, 0.5 hour, 1 hour, 2 hour, 4 hour, 6 hour, 8 hour, 24 hour after administration. Blood samples were collected through jugular vein puncture. About 0.25 mL blood was collected for each sample. Heparin sodium was used for anticoagulation and the samples were placed on ice after collection. Blood samples were placed on ice after collection, and plasma was separated by centrifugation (centrifugation condition: 8000 rpm, 6 min, 2-8° C.). The collected plasma was stored at −80° C. before analysis.
50 μL plasma sample was added into a 1.5 mL centrifugal tube, and 250 μL internal standard solution (the same volume of methanol was added to blank sample instead of internal standard) was added to the sample. The sample was mixed in a whirlpool and centrifuged for 5 minutes at 14000 rpm. The supernatant of 200 μL was added to 96-well plate for LC-MS/MS analysis.
The pharmacokinetic parameters of the test compounds were calculated using the non-compartment model of WinNonlin v5.2, a software for pharmacokinetic calculation, based on the data of plasma concentration.

PDE4B1 = target: T3, PDE4B1 (Homo sapiens, UniProt Q07343); test: PDE4 activity inhibition assay, PDE4B1; format: biochemical; conditions: FAM-cAMP substrate, 30 minutes at room temperature
T3 construct: purchased BPS 60041
Description: as §1, §2, §3, §4, §5, §6

[2] = po, intragastrical administration 10 mg/kg
[3] = po, intragastrical administration 10 mg/kg, read-out: AUC(po)
[4] = po, intragastrical administration 10 mg/kg, read-out: T1/2(po) (converted)
[5] = intravenous injection 3 mg/kg, read-out: AUC(iv)
[6] = intravenous injection 3 mg/kg, read-out: T1/2 (IV) (converted)

T1 sequence (P27815 1-647 isoform P27815-4): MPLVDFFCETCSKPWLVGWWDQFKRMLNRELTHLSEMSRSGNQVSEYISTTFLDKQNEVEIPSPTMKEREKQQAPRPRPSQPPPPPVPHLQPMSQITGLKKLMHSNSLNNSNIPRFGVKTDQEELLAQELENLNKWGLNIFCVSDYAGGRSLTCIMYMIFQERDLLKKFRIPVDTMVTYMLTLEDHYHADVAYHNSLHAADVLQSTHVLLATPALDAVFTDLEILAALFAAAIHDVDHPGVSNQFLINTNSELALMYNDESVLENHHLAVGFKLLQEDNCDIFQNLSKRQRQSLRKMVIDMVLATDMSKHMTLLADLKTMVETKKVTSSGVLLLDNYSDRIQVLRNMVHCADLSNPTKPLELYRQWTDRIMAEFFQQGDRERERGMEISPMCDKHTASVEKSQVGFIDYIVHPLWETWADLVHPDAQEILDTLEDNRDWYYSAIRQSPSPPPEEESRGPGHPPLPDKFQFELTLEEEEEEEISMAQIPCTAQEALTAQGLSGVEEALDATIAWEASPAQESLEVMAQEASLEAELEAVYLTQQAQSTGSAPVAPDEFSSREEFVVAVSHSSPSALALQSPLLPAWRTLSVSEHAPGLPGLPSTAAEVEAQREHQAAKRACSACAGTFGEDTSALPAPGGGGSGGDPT
T3 sequence (Q07343 whole entry): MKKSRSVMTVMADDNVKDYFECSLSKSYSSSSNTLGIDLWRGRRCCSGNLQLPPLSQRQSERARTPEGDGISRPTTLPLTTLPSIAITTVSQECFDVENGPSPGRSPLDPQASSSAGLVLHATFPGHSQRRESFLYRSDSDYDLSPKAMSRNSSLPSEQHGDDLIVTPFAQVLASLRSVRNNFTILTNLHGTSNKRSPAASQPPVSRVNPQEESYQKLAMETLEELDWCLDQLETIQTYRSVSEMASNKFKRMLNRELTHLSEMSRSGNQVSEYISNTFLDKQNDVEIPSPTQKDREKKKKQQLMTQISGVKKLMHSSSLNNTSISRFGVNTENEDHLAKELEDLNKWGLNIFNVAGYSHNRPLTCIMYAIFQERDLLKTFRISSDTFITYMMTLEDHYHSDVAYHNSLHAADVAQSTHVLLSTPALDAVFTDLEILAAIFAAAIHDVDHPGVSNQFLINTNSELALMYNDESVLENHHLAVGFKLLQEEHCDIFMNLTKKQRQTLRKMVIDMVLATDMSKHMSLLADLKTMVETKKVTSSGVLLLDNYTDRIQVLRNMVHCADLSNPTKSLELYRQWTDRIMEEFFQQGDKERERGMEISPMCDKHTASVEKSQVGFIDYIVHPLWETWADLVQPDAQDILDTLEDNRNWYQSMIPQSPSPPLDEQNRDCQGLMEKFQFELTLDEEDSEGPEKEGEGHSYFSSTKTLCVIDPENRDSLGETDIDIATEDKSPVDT
T2 sequence (Q08499 1-673 isoform Q08499-2): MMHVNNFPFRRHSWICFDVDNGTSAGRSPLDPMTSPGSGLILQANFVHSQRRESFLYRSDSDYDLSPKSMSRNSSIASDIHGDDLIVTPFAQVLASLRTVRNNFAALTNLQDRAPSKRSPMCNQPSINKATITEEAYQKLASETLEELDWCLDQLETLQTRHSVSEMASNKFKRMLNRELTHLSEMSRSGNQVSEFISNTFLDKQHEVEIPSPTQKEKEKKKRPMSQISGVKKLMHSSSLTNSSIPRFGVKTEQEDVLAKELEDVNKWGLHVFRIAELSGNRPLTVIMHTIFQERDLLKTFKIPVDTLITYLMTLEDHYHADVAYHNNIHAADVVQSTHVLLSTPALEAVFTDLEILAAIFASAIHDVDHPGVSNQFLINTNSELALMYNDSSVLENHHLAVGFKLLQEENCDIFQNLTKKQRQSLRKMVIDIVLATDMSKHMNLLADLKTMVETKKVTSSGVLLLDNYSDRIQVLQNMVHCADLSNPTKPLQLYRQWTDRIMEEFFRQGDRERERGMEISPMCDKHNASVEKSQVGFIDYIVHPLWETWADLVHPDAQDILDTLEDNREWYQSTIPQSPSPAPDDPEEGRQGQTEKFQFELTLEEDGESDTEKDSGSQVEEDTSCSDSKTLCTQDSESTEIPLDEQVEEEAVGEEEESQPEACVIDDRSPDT

SMILES	IC50 (PDE4A1A)	IC50 (PDE4D3)	Tmax [1, 2]	AUC [1, 3]	half-life [1, 4]	AUC [1, 5]	half-life [1, 6]	F [1]	IC50 (PDE4B1)
CCOc1nc([C@@H](CS(C)(=O)=O)N2C(=O)c3cccc(NC(C)=O)c3C2=O)ccc1OC [Compound 702, (S)—N-(2-(1-(6-ethoxy-5-methoxypyridin-2-yl)-2-(methylsulfonyl)ethyl)-1,3-dioxoisoindolin-4-yl)acetamide]	2.2 nM	4 nM	40.2 min	1050 ng·h/mL	392 min	1330 ng·h/mL	22.8 min	15.5	4.7 nM
[2H]C([2H])([2H])Oc1ccc([C@H](CS(C)(=O)=O)N2C(=O)c3cc(F)cc(NC(C)=O)c3C2=O)nc1OCC [Compound 725, (R)—N-(2-(1-(6-ethoxy-5-d3-methoxypyridin-2-yl)-2-(methylsulfonyl)ethyl)-6-fluoro-1,3-dioxoisoindolin-4-yl)acetamide]	32.1 nM	33.5 nM	–	–	–	–	–	–	93 nM
CCOc1cc(C(CS(C)(=O)=O)N2C(=O)c3cccc(NC(C)=O)c3C2=O)cnc1OC (stereo not drawn) [Compound 801, N-(2-(1-(5-ethoxy-6-methoxypyridin-3-yl)-2-(methylsulfonyl)ethyl)-1,3-dioxoisoindolin-4-yl)acetamide]	295 nM	202 nM	–	–	–	–	–	–	364 nM
CCOc1cc(C(CS(C)(=O)=O)N2C(=O)c3cccc(NC(C)=O)c3C2=O)ncc1OC (stereo not drawn) [Compound 901, N-(2-(1-(4-ethoxy-5-methoxypyridin-2-yl)-2-(methylsulfonyl)ethyl)-1,3-dioxoisoindolin-4-yl)acetamide]	411 nM	248 nM	–	–	–	–	–	–	484 nM
CCOc1nc(C(CS(C)(=O)=O)N2C(=O)c3cccc(NC(=O)CN(C)C)c3C2=O)ccc1OC (stereo not drawn) [Compound 754, 2-(dimethylamino)-N-(2-(1-(6-ethoxy-5-methoxypyridin-2-yl)-2-(methylsulfonyl)ethyl)-1,3-dioxoisoindolin-4-yl)acetamide]	10.6 nM	8 nM	–	–	–	–	–	–	21.9 nM
CCOc1nc(C(CS(C)(=O)=O)N2C(=O)c3c(F)ccc(NC(=O)CN(C)C)c3C2=O)ccc1OC (stereo not drawn) [Compound 751, 2-(dimethylamino)-N-(2-(1-(6-ethoxy-5-methoxypyridin-2-yl)-2-(methylsulfonyl)ethyl)-7-fluoro-1,3-dioxoisoindolin-4-yl)acetamide]	5 nM	3.1 nM	–	–	–	–	–	–	9.9 nM
CCOc1nc([C@@H](CS(C)(=O)=O)N2C(=O)c3c(F)ccc(NC(=O)C4CC4)c3C2=O)ccc1OC [Compound 764, (S)—N-(2-(1-(6-ethoxy-5-methoxypyridin-2-yl)-2-(methylsulfonyl)ethyl)-7-fluoro-1,3-dioxoisoindolin-4-yl)cyclopropanecarboxamide]	1.6 nM	1 nM	–	–	–	–	–	–	1.9 nM
CCOc1nc(C(CS(C)(=O)=O)N2C(=O)c3cccc(NC(C)=O)c3C2=O)ccc1OC (stereo not drawn) [Compound 701, N-(2-(1-(6-ethoxy-5-methoxypyridin-2-yl)-2-(methylsulfonyl)ethyl)-1,3-dioxoisoindolin-4-yl)acetamide]	2.5 nM	2.1 nM	–	–	–	–	–	–	3.5 nM
CCOc1nc([C@@H](CS(C)(=O)=O)N2C(=O)c3cc(F)cc(NC(C)=O)c3C2=O)ccc1OC [Compound 708, (S)—N-(2-(1-(6-ethoxy-5-methoxypyridin-2-yl)-2-(methylsulfonyl)ethyl)-6-fluoro-1,3-dioxoisoindolin-4-yl)acetamide]	3.1 nM	1.6 nM	40.2 min	51 ng·h/mL	253 min	945 ng·h/mL	32.4 min	1.62	5.1 nM

Now from value to molecule:

IC50 (PDE4A1A)	IC50 (PDE4D3)	Tmax [1, 2]	AUC [1, 3]	half-life [1, 4]	AUC [1, 5]	half-life [1, 6]	F [1]	IC50 (PDE4B1)	SMILES
22 nM	18 nM	30 min	250 ng·h/mL	52.2 min	1010 ng·h/mL	57 min	7.4	31 nM	[2H]C([2H])([2H])Oc1ccc([C@@H](CS(C)(=O)=O)N2C(=O)c3cc(F)cc(NC(C)=O)c3C2=O)cc1OCC [Compound 203, (S)—N-(2-(l-(3-ethoxy-4-d3-methoxyphenyl)-2-(methylsulfonyl)ethyl)-6-fluoro-1,3-dioxoisoindolin-4-yl)acetamide]
–	–	60 min	785 ng·h/mL	56.4 min	1050 ng·h/mL	28.2 min	22.5	–	CCOc1cc([C@@H](CS(C)(=O)=O)N2C(=O)c3cccc(NC(C)=O)c3C2=O)ccc1OC [Reference compound 2, reference compound]
7.25 nM	3.7 nM	120 min	4120 ng·h/mL	230 min	1260 ng·h/mL	63 min	98.2	12.8 nM	[2H]C([2H])([2H])Oc1ccc([C@@H](CS(C)(=O)=O)N2C(=O)c3c(F)ccc(NC(C)=O)c3C2=O)cc1OCC [Compound 103, (S)—N-(2-(1-(3-ethoxy-4-d3-methoxyphenyl)-2-(methylsulfonyl)ethyl)-7-fluoro-1,3-dioxoisoindolin-4-yl)acetamide]
0.58 nM	0.53 nM	30 min	3590 ng·h/mL	555 min	1340 ng·h/mL	55.2 min	80.2	1.6 nM	CCOc1nc([C@@H](CS(C)(=O)=O)N2C(=O)c3c(F)ccc(NC(C)=O)c3C2=O)ccc1OC [Compound 705, (S)—N-(2-(1-(6-ethoxy-5-methoxypyridin-2-yl)-2-(methylsulfonyl)ethyl)-7-fluoro-1,3-dioxoisoindolin-4-yl)acetamide]
340 nM	300 nM	–	–	–	–	–	–	493 nM	[2H]C([2H])([2H])Oc1ccc([C@H](CS(C)(=O)=O)N2C(=O)c3c(F)ccc(NC(C)=O)c3C2=O)cc1OC([2H])([2H])[2H] [Compound 106, (R)—N-(2-(1-(3,4-d6-dimethoxyphenyl)-2-(methylsulfonyl)ethyl)-7-fluoro-1,3-dioxoisoindolin-4-yl)acetamide]
